Source: US7531482B2, “Thieno-pyrimidine compounds having fungicidal activity” (Dow AgroSciences LLC, priority 2005, dated 2009)

Legend:
Format in all cases: in vivo
[1] = test system: Magnaporthe grisea=Pyricularia oryzae; experiment: whole plant or invertebrate; conditions: for pest or weed control at 200 ppm: read-out: PYRIOR disease control, 200 ppm applied to foliage of rice
[2] = test system: Puccinia recondita tritici; experiment: Leaf Rust of Wheat (PUCCRT) whole-plant disease control test; conditions: for pest or weed control at 200 ppm: read-out: PUCCRT disease control
Phytophthora infestans = experiment: whole plant or invertebrate; conditions: for pest or weed control at 200 ppm: read-out: PHYTIN disease control, 200 ppm applied to foliage of tomato
Leptosphaeria nodorum = experiment: Glume Blotch of Wheat (LEPTNO) whole-plant disease control test; conditions: for pest or weed control at 200 ppm: read-out: LEPTNO disease control
Colletotricum lagenarium = experiment: Cucumber Anthracnose (COLLLA) whole-plant disease control test; conditions: for pest or weed control at 200 ppm: read-out: COLLLA disease control
Erysiphe cichoracaerum = experiment: Cucumber Powdery Mildew (ERYSCI) whole-plant disease control test; conditions: for pest or weed control at 200 ppm: read-out: ERYSCI disease control
[3] = test system: Mycosphaerella graminicola=Septoria tritici; experiment: Speckled Leaf Blotch of Wheat (SEPTTR) whole-plant disease control test; conditions: 75 ppm applied to foliage of wheat; for pest or weed control at 75 ppm: Mycosphaerella, foliar, read-out: SEPTTR disease control
[4] = Pyricularia oryzae, foliar, inoculated one day after treatment
[5] = Puccinia recondita, foliar, 200 ppm applied to foliage of wheat, inoculated one day after treatment
[6] = Phytophthora infestans, in Solanum lycopersicum, foliar, inoculated one day after treatment
[7] = Parastagonospora nodorum, foliar, 200 ppm applied to foliage of wheat, inoculated one day after treatment
[8] = Cucumis sativus, foliar, 200 ppm applied to foliage of cucumber, inoculated one day after treatment
[9] = Erysiphe, foliar, 200 ppm applied to foliage of cucumber, inoculated one day after treatment
[10] = 200 ppm applied to foliage of wheat, inoculated one day after treatment
[11] = 200 ppm applied to foliage of cucumber, inoculated one day after treatment

Row | Compound | pest or weed control at 200 ppm [1, 4] [%] | pest or weed control at 200 ppm [2, 5] [%] | pest or weed control at 200 ppm (Phytophthora infestans; [6]) [%] | pest or weed control at 200 ppm (Leptosphaeria nodorum; [7]) [%] | pest or weed control at 200 ppm (Colletotricum lagenarium; [8]) [%] | pest or weed control at 200 ppm (Erysiphe cichoracaerum; [9]) [%] | pest or weed control at 75 ppm [3] [%] | pest or weed control at 8.3 ppm ([1]; Pyricularia oryzae, foliar, read-out: PYRIOR disease control, 8.3 ppm (footnote c), rice foliage) [%] | pest or weed control at 8.3 ppm ([2]; Puccinia recondita, foliar, 8.3 ppm (footnote c), wheat foliage) [%] | pest or weed control at 100 ppm (Phytophthora infestans; Phytophthora infestans, in Solanum lycopersicum, foliar, read-out: PHYTIN disease control, 100 ppm (footnote a), tomato foliage) [%] | pest or weed control at 75 ppm (Leptosphaeria nodorum; Parastagonospora nodorum, foliar, 75 ppm (footnote b), wheat foliage) [%] | pest or weed control at 100 ppm (Colletotricum lagenarium; Cucumis sativus, foliar, 100 ppm (footnote a), cucumber foliage) [%] | pest or weed control at 100 ppm (Erysiphe cichoracaerum; Erysiphe, foliar, 100 ppm (footnote a), cucumber foliage) [%] | PYRIOR disease control ([1]; 200 ppm applied to foliage of rice, inoculated one day after treatment) | PUCCRT disease control [2, 10] | PHYTIN disease control (Phytophthora infestans; 200 ppm applied to foliage of tomato, inoculated one day after treatment) | LEPTNO disease control (Leptosphaeria nodorum; [10]) | COLLLA disease control (Colletotricum lagenarium; [11]) | ERYSCI disease control (Erysiphe cichoracaerum; [11]) | SEPTTR disease control [3]
1 | Cc1cc(Br)cnc1Oc1ccc(CCNc2ncnc3scc(Cl)c23)cc1 [Compound 42] | 80 to 100 | 0 to 49 | 0 to 49 | 50 to 79 | 0 to 49 | 0 to 49 | 80 to 100 |  |  |  |  |  |  |  |  |  |  |  |  | 
2 | Clc1csc2ncnc(NCCc3ccc(Oc4cc(I)ccn4)cc3)c12 [Compound 43] | 80 to 100 | 80 to 100 | 0 to 49 | 80 to 100 | 50 to 79 | 80 to 100 | 80 to 100 |  |  |  |  |  |  |  |  |  |  |  |  | 
3 | FC(F)(F)COc1ccnc(Oc2ccc(CCNc3ncnc4scc(Cl)c34)cc2)n1 [Compound 44] | 80 to 100 | 80 to 100 | 50 to 79 | 80 to 100 | 0 to 49 | 50 to 79 | 80 to 100 |  |  |  |  |  |  |  |  |  |  |  |  | 
4 | Clc1nccc(Oc2ccc(CCNc3ncnc4scc(Cl)c34)cc2)n1 [Compound 45] | 50 to 79 | 80 to 100 | 0 to 49 | 0 to 49 | 0 to 49 | 0 to 49 | 50 to 79 |  |  |  |  |  |  |  |  |  |  |  |  | 
5 | CC(=O)c1cnc(Oc2ccc(CCNc3ncnc4scc(Cl)c34)cc2)s1 [Compound 46] | 50 to 79 | 80 to 100 | 0 to 49 | 0 to 49 | 0 to 49 | 0 to 49 | 50 to 79 |  |  |  |  |  |  |  |  |  |  |  |  | 
6 | N#Cc1ccnc(Oc2ccc(CCNc3ncnc4scc(Br)c34)cc2)c1 [Compound 47] |  |  |  |  |  |  | 50 to 79 | 80 to 100 | 80 to 100 | 0 to 49 | 80 to 100 | 0 to 49 | 80 to 100 |  |  |  |  |  |  | 
7 | CO/N=C(\C)c1cnc(Oc2ccc(CCNc3ncnc4scc(Cl)c34)cc2)s1 [Compound 48] | 80 to 100 | 80 to 100 | 80 to 100 | 0 to 49 | 50 to 79 | 80 to 100 | 50 to 79 |  |  |  |  |  |  |  |  |  |  |  |  | 
8 | c1csc(Oc2ccc(CCNc3ncnc4sccc34)cc2)n1 [Compound 49] | 80 to 100 | 80 to 100 | 80 to 100 | 50 to 79 | 50 to 79 | 80 to 100 | 50 to 79 |  |  |  |  |  |  |  |  |  |  |  |  | 
9 | Cc1cc(Oc2ccc(CCNc3ncnc4scc(Cl)c34)cc2)cnc1S(C)(=O)=O [Compound 50] | 80 to 100 | 80 to 100 | 80 to 100 | 50 to 79 | 50 to 79 | 0 to 49 | 50 to 79 |  |  |  |  |  |  |  |  |  |  |  |  | 
10 | Clc1cc(Br)cnc1Oc1ccc(CCNc2ncnc3scc(Cl)c23)cc1 [Compound 51] | 80 to 100 | 80 to 100 | 0 to 49 | 0 to 49 | 0 to 49 | 0 to 49 | 50 to 79 |  |  |  |  |  |  |  |  |  |  |  |  | 
11 | CCc1ncnc(Oc2ccc(CCNc3ncnc4scc(Cl)c34)cc2)c1Cl [Compound 52] | 80 to 100 | 80 to 100 | 0 to 49 | 50 to 79 | 50 to 79 | 50 to 79 | 80 to 100 |  |  |  |  |  |  |  |  |  |  |  |  | 
12 | N#Cc1ccnc(Oc2ccc(CCNc3ncnc4sccc34)cc2)c1 [Compound 53] | 80 to 100 | 80 to 100 | 80 to 100 | 50 to 79 | 80 to 100 | 50 to 79 | 50 to 79 |  |  |  |  |  |  |  |  |  |  |  |  | 
13 | Clc1csc2ncnc(NCCc3ccc(Oc4ncnc5sccc45)cc3)c12 [Compound 54] | 80 to 100 | 80 to 100 | 80 to 100 | 50 to 79 | 80 to 100 | 50 to 79 | 0 to 49 |  |  |  |  |  |  |  |  |  |  |  |  | 
14 | N#Cc1ccnc(Oc2ccc(CCNc3ncnc4scc(F)c34)cc2)c1 [Compound 55] | 0 to 49 | 80 to 100 | 50 to 79 | 0 to 49 | 80 to 100 | 50 to 79 | 50 to 79 |  |  |  |  |  |  |  |  |  |  |  |  | 
15 | Brc1csc2ncnc(NCCc3ccc(Oc4ncnc5scc(Br)c45)cc3)c12 [Compound 57] | 80 to 100 | 80 to 100 | 0 to 49 | 0 to 49 | 50 to 79 | 0 to 49 | 0 to 49 |  |  |  |  |  |  |  |  |  |  |  |  | 
16 | N#Cc1nc(Cl)ccc1Oc1ccc(CCNc2ncnc3scc(Cl)c23)cc1 [Compound 58] | 80 to 100 | 80 to 100 | 0 to 49 | 50 to 79 | 0 to 49 | 0 to 49 | 50 to 79 |  |  |  |  |  |  |  |  |  |  |  |  | 
17 | N#Cc1nc(Oc2ccc(CCNc3ncnc4scc(Cl)c34)cc2)ccc1Cl [Compound 59] | 80 to 100 | 80 to 100 | 0 to 49 | 0 to 49 | 80 to 100 | 50 to 79 | 0 to 49 |  |  |  |  |  |  |  |  |  |  |  |  | 
18 | Fc1cnc(C(F)(F)F)c(F)c1Oc1ccc(CCNc2ncnc3scc(Cl)c23)cc1 [Compound 61] | 80 to 100 | 80 to 100 | 0 to 49 | 50 to 79 | 80 to 100 | 80 to 100 | 80 to 100 |  |  |  |  |  |  |  |  |  |  |  |  | 
19 | FC(F)(F)c1cc(Cl)nc(Oc2ccc(CCNc3ncnc4scc(Cl)c34)cc2)c1 [Compound 62] | 80 to 100 | 80 to 100 | 0 to 49 | 0 to 49 | 80 to 100 | 50 to 79 | 50 to 79 |  |  |  |  |  |  |  |  |  |  |  |  | 
20 | COc1cc(C(F)(F)F)cc(Oc2ccc(CCNc3ncnc4scc(Cl)c34)cc2)n1 [Compound 63] | 80 to 100 | 80 to 100 | 50 to 79 | 0 to 49 | 50 to 79 | 80 to 100 | 50 to 79 |  |  |  |  |  |  |  |  |  |  |  |  | 
21 | FC(F)(F)c1cnc(Oc2ccc(CCNc3ncnc4scc(Cl)c34)cc2)c(Cl)c1 [Compound 64] | 80 to 100 | 80 to 100 | 0 to 49 | 0 to 49 | 50 to 79 | 80 to 100 | 80 to 100 |  |  |  |  |  |  |  |  |  |  |  |  | 
22 | FC(F)(F)c1ccc(Oc2ccc(CCNc3ncnc4scc(Cl)c34)cc2)cn1 [Compound 65] | 80 to 100 | 80 to 100 | 80 to 100 | 50 to 79 | 80 to 100 | 50 to 79 | 80 to 100 |  |  |  |  |  |  |  |  |  |  |  |  | 
23 | Cc1noc2ncnc(Oc3ccc(CCNc4ncnc5scc(Cl)c45)cc3)c12 [Compound 66] | 50 to 79 | 80 to 100 | 0 to 49 | 0 to 49 | 0 to 49 | 0 to 49 | 50 to 79 |  |  |  |  |  |  |  |  |  |  |  |  | 
24 | FC(F)(F)c1ccc(Oc2cccc(CCNc3ncnc4scc(Cl)c34)c2)nc1 [Compound 67, (5-Chlorothieno[2,3-d]pyrimidin-4-yl)-{2-[3-(5-trifluoromethylpyridin-2-yloxy)phenyl]ethyl}amine] | 80 to 100 | 80 to 100 | 50 to 79 | 50 to 79 | 0 to 49 | 50 to 79 | 80 to 100 |  |  |  |  |  |  |  |  |  |  |  |  | 
25 | Clc1csc2ncnc(NCCc3ccc(Oc4ncnc5scc(Cl)c45)cc3)c12 [Compound 68] |  |  |  |  |  |  |  |  |  |  |  |  |  | *** (*** = 80–100 percent control) | *** (*** = 80–100 percent control) | ** (** = 50–79 percent control) | * (* = 0–49 percent control) | * (* = 0–49 percent control) | * (* = 0–49 percent control) | * (* = 0–49 percent control)
